Like-named read-outs stand apart in the source and are kept apart here.
What was measured:
mock-infected MT4 cells = test: General toxicity assay on mock-infected MT4 cells with CMV-EGFP reporter (CC50); type: cell-based
HIV-1 IIIB = test: 50% HS-Rezazurin: antiviral assay in the presence of 50% human serum, MT-4 cells, resazurin cell viability; type: cell-based
Experimental: For the Antiviral assay in the presence of 50% human serum MT-4 cells were infected with HIV-1 IIIB at a MOI of 0.001 to 0.01 CCID50/cell in RPMI1640 medium. Following 1 h of incubation, cells were washed and plated into a 96-well plate containing serial dilutions of compound in the presence of 10% fetal calf serum (FCS), or 50% human serum. After 4 days incubation, the EC50 in the presence of 50% human serum was determined by a cell viability assay using resazurin.
The last column lists the results for the wild-type strain IIB in the presence of 50% human serum MT-4 cells.

HIV-1 wild-type strain = test: General antiviral assay, cell-based virus replication in MT4-LTR-EGFP cells, wild-type strain; details: wild-type strain IIIB, MT4-LTR-EGFP cells
Experimental: (§1) MT4-LTR-EGFP cells were obtained by transfecting MT4 cells with a selectable construct encompassing the sequences coding for the HIV long terminal repeat (LTR) as a promoter for the expression of enhanced green fluorescent protein (EGFP) and subsequent selection of permanently transfected cells.
(§2) The antiviral activity on different HIV-1 strains, was determined in a cell-based virus replication assay. Here MT4-LTR-EGFP cells (150,000 cells/ml) are infected (multiplicity of infection [MOI] of 0.0025) in the presence or absence of different inhibitor concentrations. Two methodologies for read-out were used, either quantification of GFP-fluoresence on day 3 post-infection, or quantification of cell-viability using rezazurin (as described by Fields, R. D., and M. V. Lancaster (1993) Am. Biotechnol. Lab. 11:48-50) on day 4 post infection.

[1] = tested on: HIV-1 Strain C (G048G/V, V082A); test: microbe, parasite or virus in culture; type: cell-based; details: clinical isolate Strain C; read-out: C EC50
Experimental: as §1, §2
(§3) In the following Table, Strains A, B, and C are clinical isolates that include the following protease inhibitor resistance mutations in the protease domain (background mutations are not mentioned).

[2] = tested on: HIV-1 Strain A (M046I, I084V); test: microbe, parasite or virus in culture; type: cell-based; details: clinical isolate Strain A; read-out: A EC50
Experimental: as §1, §2, §3

[3] = tested on: HIV-1 Strain B (M046I, I050V); test: microbe, parasite or virus in culture; type: cell-based; details: clinical isolate Strain B; read-out: B EC50
Experimental: as §1, §2, §3

[4] = mock-infected MT4 cells with CMV-EGFP reporter, read-out: TOX-MT4CMV (CC50)
[5] = MT4LTR cells, read-out: TOX-MT4LTR (CC50)

Row | SMILES | CC50 (mock-infected MT4 cells; [4]) [nM] | EC50 (HIV-1 IIIB) [nM] | EC50 (HIV-1 wild-type strain) [nM] | EC50 [1] [nM] | EC50 [2] [nM] | EC50 [3] [nM] | CC50 (mock-infected MT4 cells; [5]) [nM] | CC50 (mock-infected MT4 cells; read-out: TOX-MT4CMV (CC50)) [nM]
1 | COC(=O)NC(C(=O)NC(Cc1ccc(-c2cc(C)nc(C3CC3)c2)cc1)C(O)CC(Cc1ccccc1F)C(=O)NC1c2cc(Cl)ccc2OCC1O)C(C)(C)C (stereo not drawn) [Compound 21] | > 32000 | 34.9 | 6.1 | 3.6 | 3.8 | 3.2 |  | 
2 | COC(=O)NC(C(=O)NC(Cc1ccc(-c2cnc(N(C)C)cn2)cc1)C(O)CC(Cc1ccccc1F)C(=O)NC1c2cc(Cl)ccc2OCC1O)C(C)(C)C (stereo not drawn) [Compound 22] | > 32000 | 26.4 | 3.8 | 2.1 | 3.5 | 2.6 |  | 
3 | COC(=O)NC(C(=O)NC(Cc1ccc(-c2cnc(OC)cn2)cc1)C(O)CC(Cc1ccccc1F)C(=O)NC1c2cc(Cl)ccc2OCC1O)C(C)(C)C (stereo not drawn) [Compound 23] | 19000 | 12.3 | 3 | 2 | 3.7 | 2.4 |  | 
4 | COC(=O)N[C@H](C(=O)N[C@@H](Cc1ccc(-c2cncc(N(C)C)n2)cc1)[C@@H](O)C[C@@H](Cc1ccccc1F)C(=O)N[C@H]1c2cc(Cl)ccc2OC[C@H]1O)C(C)(C)C [Compound 25] | > 32000 | 26.4 | 4.9 | 2.5 | 4.6 | 2.7 |  | 
5 | COC(=O)N[C@H](C(=O)N[C@@H](Cc1ccc(-c2ccc(N(C)C)nc2)cc1)[C@@H](O)C[C@@H](Cc1cccc(OC)c1)C(=O)N[C@H]1c2cc(F)ccc2OC[C@H]1O)C(C)(C)C [Compound 26] | > 32000 | 15.4 | 5 | 3.2 | 4.2 | 3.4 |  | 
6 | COC(=O)N[C@H](C(=O)N[C@@H](Cc1ccc(-c2ccc(OC)nc2)cc1)[C@@H](O)C[C@@H](Cc1cccc(OC)c1)C(=O)N[C@H]1c2cc(Cl)ccc2OC[C@H]1O)C(C)(C)C [Compound 27] | > 32000 | 10.7 | 3.1 | 1.6 | 2.8 | 2.2 | > 32000 | 
7 | COC(=O)N[C@H](C(=O)N[C@@H](Cc1ccc(-c2cnc(C3CC3)s2)cc1)[C@@H](O)C[C@@H](Cc1ccccc1F)C(=O)N[C@H]1c2cc(Cl)ccc2OC[C@H]1O)C(C)(C)C [Compound 28] | > 32000 | 22.5 | 3.2 | 1.4 | 3.1 | 2.1 |  | 
8 | COC(=O)N[C@H](C(=O)N[C@@H](Cc1ccc(-c2csc(OC)n2)cc1)[C@@H](O)C[C@@H](Cc1ccccc1F)C(=O)N[C@H]1c2cc(Cl)ccc2OC[C@H]1O)C(C)(C)C [Compound 29] | 10000 | 13.7 | 5.5 | 3.1 | 6.6 | 3.4 |  | 
9 | COC(=O)N[C@H](C(=O)N[C@@H](Cc1ccc(-c2cccc(OC)n2)cc1)[C@@H](O)C[C@@H](Cc1ccccc1F)C(=O)N[C@H]1c2cc(Cl)ccc2OC[C@H]1O)C(C)(C)C [Compound 30] | > 32000 | 17.4 | 4 | 2.5 | 5.9 | 2.8 |  | 
10 | COC(=O)N[C@H](C(=O)N[C@@H](Cc1ccc(-c2ccnc(C(F)(F)F)c2)cc1)[C@@H](O)C[C@@H](Cc1ccccc1F)C(=O)N[C@H]1c2cc(Cl)ccc2OC[C@H]1O)C(C)(C)C [Compound 31] | > 32000 | 26.4 | 7 | 3.4 | 5 | 3.2 |  | 
11 | COC(=O)N[C@H](C(=O)N[C@@H](Cc1ccc(-c2ccc(N(C)C)nc2)cc1)[C@@H](O)C[C@@H](Cc1ccccc1F)C(=O)N[C@H]1c2cc(F)ccc2OC[C@H]1O)C(C)(C)C [Compound 33] | > 32000 | 9.8 | 2.5 | 0.9 | 1.5 | 1 |  | 
12 | COCCOC(=O)N[C@H](C(=O)N[C@@H](Cc1ccc(-c2ccc(N(C)C)nc2)cc1)[C@@H](O)C[C@@H](Cc1ccccc1F)C(=O)N[C@H]1c2cc(F)ccc2OC[C@H]1O)C(C)(C)C [Compound 34] | > 32000 | 10 | 2.7 | 1.3 | 2 | 1.5 | > 32000 | 
13 | CN(C)c1ccc(-c2ccc(C[C@H](NC(=O)[C@@H](NC(=O)C3(C#N)CC3)C(C)(C)C)[C@@H](O)C[C@@H](Cc3ccccc3F)C(=O)N[C@H]3c4cc(F)ccc4OC[C@H]3O)cc2)cn1 [Compound 35] |  | 8.4 | 2.1 | 2 | 4 | 2.2 | > 32000 | > 32000
14 | COC(=O)N[C@H](C(=O)N[C@@H](Cc1ccc(-c2ccc(N(C)C)nc2)cc1)[C@@H](O)C[C@@H](Cc1cccc(F)c1)C(=O)N[C@H]1c2ccccc2OC[C@H]1O)C(C)(C)C [Compound 36] | > 32000 | 14.3 | 2.9 | 1.3 | 2.4 | 1.4 | > 32000 | 
15 | COC(=O)N[C@H](C(=O)N[C@@H](Cc1ccc(-c2ccc(OC)nc2)cc1)[C@@H](O)C[C@@H](Cc1ccccc1Cl)C(=O)N[C@H]1c2ccccc2OC[C@H]1O)C(C)(C)C [Compound 37] | > 32000 | 4.6 | 1.7 | 0.8 | 2.5 | 0.9 | > 32000 | 
16 | COC(=O)N[C@H](C(=O)N[C@@H](Cc1ccc(-c2ccc(OC)nc2)cc1)[C@@H](O)C[C@@H](Cc1cccc(F)c1)C(=O)N[C@H]1c2cc(Cl)ccc2OC[C@H]1O)C(C)(C)C [Compound 39] | > 32000 | 16.4 | 3 | 1.3 | 3.9 | 2.1 | > 32000 | 
17 | COC(=O)N[C@H](C(=O)N[C@@H](Cc1ccc(-c2ccc(OC)nc2)cc1)[C@@H](O)C[C@@H](Cc1cccc(F)c1)C(=O)N[C@H]1c2cccc(F)c2OC[C@H]1O)C(C)(C)C [Compound 40] | > 32000 | 11.2 | 2.4 | 0.8 | 1.6 | 1 | > 32000 | 
18 | COC(=O)N[C@H](C(=O)N[C@@H](Cc1ccc(-c2ccc(OC)nc2)cc1)[C@@H](O)C[C@@H](Cc1cccc(OC(F)(F)F)c1)C(=O)N[C@H]1c2ccccc2OC[C@H]1O)C(C)(C)C [Compound 41] | > 32000 | 10.5 | 3 | 1.1 | 2.4 | 1.2 | > 32000 | 
19 | COC(=O)N[C@H](C(=O)N[C@@H](Cc1ccc(-c2ccc(OC)nc2)cc1)[C@@H](O)C[C@@H](Cc1cccc(OC(F)(F)F)c1)C(=O)N[C@H]1c2cc(Cl)ccc2OC[C@H]1O)C(C)(C)C [Compound 42] | > 32000 | 23.7 | 4.2 | 3.9 | 7.2 | 4.1 | > 32000 | 
20 | COC(=O)N[C@H](C(=O)N[C@@H](Cc1ccc(-c2cnc(N(C)C)nc2)cc1)[C@@H](O)C[C@@H](Cc1ccccc1F)C(=O)N[C@H]1c2cc(Cl)ccc2OC[C@H]1O)C(C)(C)C [Compound 43] |  | 10.6 | 2 | 1.1 | 1.7 | 1 | > 32000 | 
21 | COC(=O)N[C@H](C(=O)N[C@@H](Cc1ccc(-c2ccc(OC)nc2)cc1)[C@@H](O)C[C@@H](Cc1ccccc1F)C(=O)N[C@H]1c2cccc(Cl)c2OC[C@H]1O)C(C)(C)C [Compound 45] |  | 5.2 | 3.5 | 0.7 | 1.2 | 0.8 | > 32000 | 
22 | COC(=O)N[C@H](C(=O)N[C@@H](Cc1ccc(-c2cnc(OC(C)C)cn2)cc1)[C@@H](O)C[C@@H](Cc1cccc(F)c1)C(=O)N[C@H]1c2cc(Cl)ccc2OC[C@H]1O)C(C)(C)C [Compound 46] |  | 34.6 | 5.3 | 3.7 | 9.4 | 5.6 | 10000 | 
23 | COc1ccc(-c2ccc(C[C@H](NC(=O)[C@@H](NC(=O)C3(C#N)CC3)C(C)(C)C)[C@@H](O)C[C@@H](Cc3ccccc3F)C(=O)N[C@H]3c4cc(Cl)ccc4OC[C@H]3O)cc2)cn1 [Compound 47] |  | 10.4 | 3.2 | 5.5 | 11.1 | 6.8 | > 32000 | 

— patent publication US20120295920A1, “5-AMINO-4-HYDROXYPENTOYL AMIDES” (priority 2009, published 2012)
